We go through four cell lines from the supplement of paper PMC10307832.

Holding throughout (assay): relative viability (nuclei count vs DMSO), 5 days (fraction); higher = more cells survive
Compound in experiment [1]: CCOc1cc2ncc(C#N)c(Nc3ccc(OCc4ccccn4)c(Cl)c3)c2cc1NC(=O)/C=C/CN(C)C [Neratinib] + CC(=O)c1c(C)c2cnc(Nc3ccc(N4CCNCC4)cn3)nc2n(C2CCCC2)c1=O [Palbociclib] (partner 0.5 µM)
In short, it runs like this: (§1)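 Lung cancer cell lines in 1536-well plates were dosed by pin tool the day after seeding, either with one drug alone or with a fixed anchor-drug dose plus five library-drug doses (not always all listed) in √10 steps. After 5 days, cells were fixed and their nuclei stained in one step (final 0.05% Triton X-100, 1% formaldehyde, 1 ug/ml Hoechst), then counted on 4× images. Relative viability is the nuclei count in treated wells divided by that in vehicle wells. Values are medians of duplicate plates.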

Compound in experiment [2]: CCOc1cc2ncc(C#N)c(Nc3ccc(OCc4ccccn4)c(Cl)c3)c2cc1NC(=O)/C=C/CN(C)C [Neratinib] + CS(=O)(=O)N1CCN(Cc2cc3nc(-c4cccc5[nH]ncc45)nc(N4CCOCC4)c3s2)CC1 [Pictilisib] (partner 1 µM)
In short, it runs like this: as §1

Compound in experiment [3]: CCOc1cc2ncc(C#N)c(Nc3ccc(OCc4ccccn4)c(Cl)c3)c2cc1NC(=O)/C=C/CN(C)C [Neratinib] + N=C(N)NC(=N)NCCc1ccccc1 [Phenformin] (partner 250 µM)
The method, boiled down:
as §1

Compound in experiment [4]: CCOc1cc2ncc(C#N)c(Nc3ccc(OCc4ccccn4)c(Cl)c3)c2cc1NC(=O)/C=C/CN(C)C [Neratinib] + Nc1ncn([C@H]2C[C@H](O)[C@@H](CO)O2)c(=O)n1 [Decitabine] (partner 2 µM)
In short, it runs like this: as §1

Turning to HCC-366, the relative viability turned out to be 0.418 in experiment [1] (first compound 0.01 µM); 0.464 in experiment [1] (first compound 0.03162 µM); 0.353 in experiment [1] (first compound 0.1 µM); 0.431 in experiment [1] (first compound 0.3162 µM); 0.211 in experiment [1] (first compound 1 µM); 0.174 in experiment [2] (first compound 0.01 µM). Moreover, the relative viability stood at 0.149 in experiment [2] (first compound 0.03162 µM); 0.101 in experiment [2] (first compound 0.1 µM); 0.137 in experiment [2] (first compound 0.3162 µM); 0.112 in experiment [2] (first compound 1 µM); 0.631 in experiment [3] (first compound 0.01 µM); 0.617 in experiment [3] (first compound 0.03162 µM). Besides, the relative viability in experiment [3] (first compound 0.1 µM) was 0.611; in experiment [3] (first compound 0.3162 µM), 0.626; in experiment [3] (first compound 1 µM) it was 0.547; in experiment [4] (first compound 0.01 µM), 0.361; in experiment [4] (first compound 0.03162 µM) it was 0.429; in experiment [4] (first compound 0.1 µM), 0.33. Besides, the relative viability turned out to be 0.368 in experiment [4] (first compound 0.3162 µM) and 0.471 in experiment [4] (first compound 1 µM).
Regarding NCI-H441, the relative viability was 0.244 in experiment [1] (first compound 0.01 µM); 0.192 in experiment [1] (first compound 0.03162 µM); 0.177 in experiment [1] (first compound 0.1 µM); 0.163 in experiment [1] (first compound 0.3162 µM); 0.161 in experiment [1] (first compound 1 µM); 0.508 in experiment [2] (first compound 0.01 µM). The relative viability was found to be 0.482 in experiment [2] (first compound 0.03162 µM); 0.456 in experiment [2] (first compound 0.1 µM); 0.313 in experiment [2] (first compound 0.3162 µM); 0.191 in experiment [2] (first compound 1 µM); 1.04 in experiment [3] (first compound 0.01 µM); 0.82 in experiment [3] (first compound 0.03162 µM). The relative viability in experiment [3] (first compound 0.1 µM) came out at 0.94; in experiment [3] (first compound 0.3162 µM) it was 0.705; in experiment [3] (first compound 1 µM) it was 0.45; in experiment [4] (first compound 0.01 µM), 0.255; in experiment [4] (first compound 0.03162 µM) it was 0.246; in experiment [4] (first compound 0.1 µM) it was 0.235. Moreover, the relative viability turned out to be 0.209 in experiment [4] (first compound 0.3162 µM) and 0.2 in experiment [4] (first compound 1 µM).
As for NCI-H2405, the relative viability in experiment [1] (first compound 0.01 µM) was found to be 0.56; in experiment [1] (first compound 0.03162 µM), 0.579; in experiment [1] (first compound 0.1 µM) it was 0.534; in experiment [1] (first compound 0.3162 µM), 0.567; in experiment [1] (first compound 1 µM), 0.419; in experiment [2] (first compound 0.01 µM), 0.522. The relative viability in experiment [2] (first compound 0.03162 µM) came to 0.547; in experiment [2] (first compound 0.1 µM), 0.515; in experiment [2] (first compound 0.3162 µM) it was 0.399; in experiment [2] (first compound 1 µM), 0.29; in experiment [3] (first compound 0.01 µM), 0.421; in experiment [3] (first compound 0.03162 µM), 0.393. In addition, the relative viability in experiment [3] (first compound 0.1 µM) was found to be 0.414; in experiment [3] (first compound 0.3162 µM), 0.33; in experiment [3] (first compound 1 µM), 0.359; in experiment [4] (first compound 0.01 µM), 0.799; in experiment [4] (first compound 0.03162 µM), 0.74; in experiment [4] (first compound 0.1 µM) it was 0.769. Moreover, the relative viability in experiment [4] (first compound 0.3162 µM) came to 0.675; in experiment [4] (first compound 1 µM) it was 0.669.
Regarding NCI-H1975, the relative viability in experiment [1] (first compound 0.01 µM) worked out at 0.658; in experiment [1] (first compound 0.03162 µM) it was 0.739; in experiment [1] (first compound 0.1 µM) it was 0.522; in experiment [1] (first compound 0.3162 µM), 0.337; in experiment [1] (first compound 1 µM), 0.176; in experiment [2] (first compound 0.01 µM), 0.328. For the same cell line, the relative viability in experiment [2] (first compound 0.03162 µM) turned out to be 0.372; in experiment [2] (first compound 0.1 µM) it was 0.209; in experiment [2] (first compound 0.3162 µM) it was 0.104; in experiment [2] (first compound 1 µM), 0.143; in experiment [3] (first compound 0.01 µM) it was 0.434; in experiment [3] (first compound 0.03162 µM), 0.446. Also, the relative viability in experiment [3] (first compound 0.1 µM) was found to be 0.403; in experiment [3] (first compound 0.3162 µM), 0.211; in experiment [3] (first compound 1 µM) it was 0.161; in experiment [4] (first compound 0.01 µM), 0.36; in experiment [4] (first compound 0.03162 µM), 0.444; in experiment [4] (first compound 0.1 µM), 0.351. Moreover, the figures for the relative viability in experiment [4] (first compound 0.3162 µM) and in experiment [4] (first compound 1 µM) were 0.346 and 0.19, respectively.
